Results from publication PMC8521408 (Journal of Antimicrobial Chemotherapy, 2021).
Where two headings read alike, the source gives them in different places.

Experiments:
[1] = New-onset AKI during vancomycin treatment
[2] = for Covariate effect, CRGT on CL: exponent of (CRGT/83) on CL
[3] = for Cumulative AUC: mean ± SD, SD
[4] = Other clinical endpoints during ICU stay
[5] = final model estimate, scaled to 70 kg TBW, critically ill ICU patients
[6] = median of bootstrap of final model (1000 samples)

CN[C@H](CC(C)C)C(=O)N[C@H]1C(=O)N[C@@H](CC(N)=O)C(=O)N[C@H]2C(=O)N[C@H]3C(=O)N[C@H](C(=O)N[C@H](C(=O)O)c4cc(O)cc(O)c4-c4cc3ccc4O)[C@H](O)c3ccc(c(Cl)c3)Oc3cc2cc(c3O[C@@H]2O[C@H](CO)[C@@H](O)[C@H](O)[C@H]2O[C@H]2C[C@](C)(N)[C@H](O)[C@H](C)O2)Oc2ccc(cc2Cl)[C@H]1O [vancomycin]
incidence of new-onset AKI ([1]; AUC0–24 < 400 mg·h/L, 4/27, all three groups): 14.8% | incidence of new-onset AKI ([1]; AUC0–24 below 600 mg·h/L, 17/69): 24.6% | incidence of new-onset AKI ([1]; AUC0–24 ≥400 mg·h/L, 30/77, all three groups): 39.0% | incidence of new-onset AKI ([1]; AUC0–24 ≥ 600 mg·h/L, 17/35): 48.6% | number needed to harm (new-onset AKI) ([1]; AUC0–24 ≥400 versus < 400 mg·h/L): 4.1 | percentage of patients with new-onset AKI ([1]; CD group, fixed first dose 1000 mg, 10/35 patients): 28.6% | percentage of patients with new-onset AKI ([1]; LD group, 25 mg/kg loading dose, 17/45 patients): 37.8% | Covariate effect, CRGT on CL ([2]; bootstrap median): 0.63 | Covariate effect, CRGT on CL ([2]; final model estimate): 0.65 | V1, vancomycin central volume of distribution [2, 5]: 13.4 L | V2, vancomycin peripheral volume of distribution [2, 5]: 36.9 L | CL, vancomycin clearance [2, 6]: 1.83 L/h | V1, vancomycin central volume of distribution [2, 6]: 13.1 L | V2, vancomycin peripheral volume of distribution [2, 6]: 35.7 L | median AUC0–24 ([3]; CD group, fixed first dose 1000 mg (N = 39 courses)): 401 µg·h/mL | percentage of courses achieving AUC0–24 ≥400 mg·h/L ([3]; CD group, fixed first dose 1000 mg (N = 39 courses), assuming MIC = 1 mg/L): 53.8% | median AUC0–24 ([3]; LD group, 25 mg/kg loading dose (N = 50 courses)): 602 µg·h/mL | Cumulative AUC ([3]; all episodes included for model building (N = 104)): 1937 ± 1448 µg·h/mL | percentage of courses with AUC0–24 > 600 mg·h/L ([3]; courses with a loading dose, 26/50): 52% | Cumulative AUC ([3]; episodes with 25 mg/kg loading dose, LD group (N = 50)): 2027 ± 1543 µg·h/mL | Cumulative AUC ([3]; episodes without loading dose, CD group, first dose 1000 mg (N = 39)): 1849 ± 1359 µg·h/mL | percentage of patients still on CVVH or other RRT at ICU discharge ([4]; CD group): 21.2% | percentage of patients with AKI at ICU discharge ([4]; CD group): 30.3% | percentage of patients with AKI using the maximum RIFLE score during the complete ICU stay ([4]; CD group): 59.4% | mean AKI duration ([4]; CD group, fixed first dose 1000 mg): 75.2 h | percentage of patients still on CVVH or other RRT at ICU discharge ([4]; LD group): 31.7% | percentage of patients with AKI at ICU discharge ([4]; LD group): 34.1% | percentage of patients with AKI using the maximum RIFLE score during the complete ICU stay ([4]; LD group): 57.5% | mean AKI duration ([4]; LD group, 25 mg/kg loading dose): 37.2 h
